Measured values reported in patent US20210386756A1, “IMPROVEMENTS FOR PERFORMING AND FACILITATING THE RECOVERY AFTER HEMATOPOIETIC STEM CELL TRANSPLANTATION” (Centro de Investigaciones Energéticas, Medioambientales y …, priority 2018, published 2021).

Legend:
[1] = tested on: hCD34+ hematopoietic progenitors; assay: In vitro toxicity of natural estrogens for hematopoietic progenitors (hCD34+ culture, FACS subsets); assay type: cell-based, human; settings: for toxicity for hematopoietic progenitor subpopulations: 10 nM to 500 μM, in vitro; for % CD34+/CD38− / % HSC / % MLP / % MPP: four days culture
Protocol: FIG. 9 relates the effect of different concentration of E1, E2, E3 and E4 in human hematopoietic progenitors. Human hematopoietic progenitors were culture in phenol red free media supplemented with 100 ng/mL SCF, 100 ng/ml FLT3L and 100 ng/ml TPO and different concentration of E1, E2, E3 and E4 (from 10 nM to 500 μM). FIG. 9A represents the fold increase of the number of hematopoietic cells after four days in culture. FIG. 9B indicates the total number of primitive hematopoietic progenitors (CD34^+/CD38^−) present in the culture, extrapolated from number of cells and the frequency of this population analyzed by FACS. […] Grey dashed lines point the value of control group, and red dashed lines indicate the initial values at day 0. (Kruskal-Wallis test; P<0.05, data from four independent experiments).
To assess the toxicity of the natural estrogens (E1, E2, E3 and E4) for hematopoietic progenitors, in vitro studies were performed. 5×10^4 hCD34^+ were cultured in a phenol red-free media, X-Vivo 20 (Lonza), in presence of 100 ng/ml SCF, 100 ng/ml FLT3L, 100 ng/ml TPO, 0.5% PS, 1% Glutamax (Thermofisher) and different concentrations of E1, E2, E3 or E4 (from 10 nM to 500 μM). Cell proliferation and immunophenotype of different hematopoietic subsets (CD34^+/CD38^−, HSC [CD34^+/CD38^−/CD45RA^−/CD90^+], Multipotent Progenitors [MPP, CD34^+/CD38^−/CD45RA^−/CD90^−], Multipotent Lymphoid Progenitors [MLP, CD34^+/CD38^−/CD45RA^+] were evaluated at day 0 and four days after culture.

[2] = tested on: human cord blood CD34+; assay: Human engraftment in male NSG mice transplanted with a limited CD34+ cell dose (5×10^3); assay type: in vivo, mouse
Protocol: FIG. 6A indicates the level of human engraftment, which was raised by E4 administration. […] (Kruskal-Wallis test; P=0.1150, 7-10 mice per group). […] Three-four months later, the animals were sacrificed and the human hematopoietic engraftment was analyzed by FACS. Human hematopoietic population was identified as the cells positive for hCD45-APC-Cy7 (Biolegend) and negative for mouse CD45.1-PE (Biolegend). To determine whether estrogen can improve hematopoietic reconstitution of low number of hematopoietic progenitors, male NSG were irradiated and transplanted with low doses of human cord blood CD34+ (5×103 hCD34+). The human engraftment was analyzed as described in Example 1.

[3] = tested on: human cord-blood CD34+ cells; assay: Human hematopoietic engraftment in male NSG mice transplanted with 5×10^4 human cord-blood CD34+ cells; assay type: in vivo, mouse; settings: male NSG, 5×10^4 CD34+, 2 μg daily for four days, mean +/− SEM
Protocol: Three-four months later, the animals were sacrificed and the human hematopoietic engraftment was analyzed by FACS. Human hematopoietic population was identified as the cells positive for hCD45-APC-Cy7 (Biolegend) and negative for mouse CD45.1-PE (Biolegend). In order to further examine the effect of the estrogen in HSCT, hematopoietic progenitors (hCD34+) and hematopoietic stem cells (hCD34+/hCD38−) were analyzed by FACS inside of the human population in the treated NSG described in Example 1.

[4] = tested on: human cord blood CD34+; assay: Human engraftment in female NSG mice transplanted with a limited CD34+ cell dose (5×10^3); assay type: in vivo, mouse; settings: low dose 5×10^3 hCD34+, mean +/− SEM
Description: FIG. 7A indicates human hematopoietic reconstitution after four months. […] However, in spite of this presence of endogenous estrogens, the human engraftment in female recipients was increased after E2 and more importantly after E4 treatment. FIG. 7B relates the presence of primitive hematopoietic progenitors was higher in the female mice treated with estrogens, which indicated the quality of the reconstitution. (Kruskal-Wallis test; P<0.05, 4 mice per group). […] Three-four months later, the animals were sacrificed and the human hematopoietic engraftment was analyzed by FACS. Human hematopoietic population was identified as the cells positive for hCD45-APC-Cy7 (Biolegend) and negative for mouse CD45.1-PE (Biolegend). To assess whether estrogen can improve hematopoietic reconstitution in female recipients, female NSG were irradiated and transplanted by a low doses of human cord blood CD34^+ (5×10^3 hCD34^+). The human engraftment was analyzed as described in Example 1. […] However, in spite of this presence of endogenous estrogens, the human engraftment in female recipients was increased after E2 and more importantly after E4 treatment.

[5] = tested on: human hematopoietic progenitors (CB-CD34+); assay: LTC-IC human bone marrow-like co-culture (hMSC + hCD34+) and CFU assay; assay type: cell-based
Protocol: LTC-IC was established through the co-culture of human bone marrow Mesenchymal Stromal Cells (BM-MSC) and human progenitors (CB-CD34+) to research the positive effects of the estrogens in a human context, such as an in vitro human bone marrow model. LTC-ICs were treated with vehicle or 100 µM of E2 or E4 for a week. […] Cells were plated in methycellulose media with specific hematopoietic cytokines to evaluate the hematopoietic progenitor content. After 14 days, colony forming units (CFU) were counted. Data were normalized to control groups. […] 1×10^5 human mesenchymal stromal cells (hMSC) were seeded in a p6 well and irradiated with 30 Gy next day. The following day, 5×10^4 hCD34^+ were added to the hMSC in LTC-IC media: 75% α-MEM without Phenol Red (Life Technologies), 12.5% Hyclone FBS (GE Healthcare), HS (Life Technologies), β-mercaptoethanol (Life Technologies), 0.5% PS and 1×10^−6 M Hydrocortisone (Sigma-Aldrich). 100 μM of estrogens, dissolved in ethanol, was added to the co-culture for a week, and then the cells were collected and the amount of human hematopoietic progenitors were evaluated in semisolid media supplement with specific hematopoietic cytokines (H4535, StemCell Technologies) plus 8 U/ml hEPO. After fourteen days, colony-forming units (CFU) were evaluated and normalized to the control: […]

[6] = 100 μM for a week, versus vehicle

SMILES | toxicity for hematopoietic progenitor subpopulations [1] | % CD34+/CD38− ([1]; 10 nM) [%] | % HSC ([1]; 10 nM) [%] | % MLP ([1]; 10 nM) [%] | % MPP ([1]; 10 nM) [%] | % CD34+/CD38− ([1]; 100 nM) [%] | % HSC ([1]; 100 nM) [%] | % MLP ([1]; 100 nM) [%] | % MPP ([1]; 100 nM) [%] | % CD34+/CD38− ([1]; 1 μM) [%] | % HSC ([1]; 1 μM) [%] | % MLP ([1]; 1 μM) [%] | % MPP ([1]; 1 μM) [%] | % CD34+/CD38− ([1]; 10 μM) [%] | % HSC ([1]; 10 μM) [%] | % MLP ([1]; 10 μM) [%] | % MPP ([1]; 10 μM) [%] | % HSC ([1]; 100 μM) [%] | % MLP ([1]; 100 μM) [%] | % MPP ([1]; 100 μM) [%] | other results
C[C@]12CC[C@@H]3c4ccc(O)cc4CC[C@H]3[C@@H]1CCC2=O [E1, estrone] | more toxic | 12.32 ± 2.72 | 2.19 ± 0.65 | 3.32 ± 1.90 | 4.69 ± 0.88 | 12.91 ± 5.83 | 2.12 ± 0.29 | 4.12 ± 3.56 | 4.37 ± 1.47 | 10.11 ± 2.31 | 2.31 ± 0.45 | 1.80 ± 0.92 | 4.48 ± 1.50 | 10.54 ± 3.34 | 2.25 ± 0.41 | 2.92 ± 2.12 | 3.66 ± 0.89 | 0.67 | 4.46 | 3.86 | % CD34+/CD38− ([1]; 100 μM): 11.02%; % CD34+/CD38− ([1]; 500 μM): 14.80 ± 4.62%; % HSC ([1]; 500 μM): 1.75 ± 0.51%; % MLP ([1]; 500 μM): 4.64 ± 3.09%; % MPP ([1]; 500 μM): 5.87 ± 1.34%
C[C@]12CC[C@@H]3c4ccc(O)cc4CC[C@H]3[C@@H]1CC[C@@H]2O [E2, 17β-estradiol] | more toxic | 11.99 ± 0.99 | 1.52 ± 0.24 | 4.23 ± 0.82 | 4.33 ± 0.33 | 10.74 ± 0.29 | 4.25 ± 2.95 | 3.72 ± 0.31 | 3.20 ± 0.76 | 13.43 ± 0.60 | 1.59 ± 0.15 | 3.98 ± 0.14 | 5.62 ± 0.74 | 17.52 ± 2.19 | 1.86 ± 0.12 | 6.79 ± 1.96 | 4.97 ± 0.23 | 4.50 ± 1.91 | 1.76 ± 0.66 | 7.08 ± 1.80 | proportion of engrafted mice (human engraftment above 0.1%) ([2]; 5×10^3 CB-CD34+): 70%; change of the proportion of engrafted mice versus vehicle ([2]; limited HPC dose, engraftment above 0.1%): almost tripled; Percentage of human hematopoietic reconstitution ([2]; low dose 5×103 hCD34+, mean +/− SEM): 2.12 +/− 1.05 (n = 10) %; Percentage in the human hematopoietic population: hematopoietic stem cells ([3]; hCD34+/hCD38−): 0.52 +/− 0.07 (n = 13) %; Percentage in the human hematopoietic population: hematopoietic progenitors ([3]; hCD34+): 9.35 +/− 0.86 (n = 13) %; Percentage of human hematopoietic reconstitution ([3]; three-four months later): 46.05 +/− 5.98 (n = 13) %; Percentage in the human hematopoietic population: Lymphoid ([3]; CD19+): 82.26 +/− 2.14 (n = 9) %; Percentage in the human hematopoietic population: Myeloid ([3]; CD33+): 8.42 +/− 0.88 (n = 9) %; % CD34+/CD38− ([1]; 100 μM): 14.52 ± 2.88%; % CD34+/CD38− ([1]; 500 μM): 11.93 ± 2.95%; % HSC ([1]; 500 μM): 3.97 ± 2.39%; % MLP ([1]; 500 μM): 1.01 ± 0.24%; % MPP ([1]; 500 μM): 6.96 ± 2.54%; Percentage of hematopoietic stem cells (hCD34+/hCD38−) in the human hematopoietic population [4]: 0.34 +/− 0.12 (n = 3) %; Percentage of human hematopoietic reconstitution [4]: 23.90 +/− 4.65 (n = 3) %; Normalized human CFU ([5]; 100 μM estrogen for a week, CFU after fourteen days, normalized to control, mean +/− SEM): 1.50 +/− 0.21 (n = 6); number of hematopoietic cells in LTC-IC [5, 6]: reduced; total number of primitive hematopoietic progenitors in LTC-IC [5, 6]: did not change
C[C@]12CC[C@@H]3c4ccc(O)cc4CC[C@H]3[C@@H]1C[C@@H](O)[C@@H]2O [E3, estriol] | more toxic | 14.77 ± 0.41 | 1.87 ± 0.09 | 4.94 ± 0.70 | 5.75 ± 0.21 | 18.28 ± 1.30 | 2.28 ± 0.03 | 6.46 ± 0.83 | 7.25 ± 0.46 | 14.96 ± 0.57 | 4.94 ± 2.86 | 2.72 ± 2.38 | 5.57 ± 0.12 | 15.89 ± 0.62 | 1.95 ± 0.13 | 5.24 ± 0.65 | 6.18 ± 0.47 | 4.13 | 0.15 | 6.44 | % CD34+/CD38− ([1]; 500 μM): 17.92 ± 2.56%; % HSC ([1]; 500 μM): 3.70 ± 1.51%; % MLP ([1]; 500 μM): 4.73 ± 1.60%; % MPP ([1]; 500 μM): 7.61 ± 2.91%
